Test results published in article PMC12118597 (Science Advances, 2025).
Several values for one entry are separate records, joined by “and”; a condition that tells them apart may be missing. Equal entries are not always repeated. Where two headings read alike, the source gives them in different places.

Assays:
Microsomal stability = assay type: in vitro ADME, mouse; details: for T1/2 (min), mean: Mouse microsome stability assay; for CLint (mouse): intrinsic clearance from t1/2
Protocol: The assay was carried out in 96-well plates at 37°C. Reaction mixtures (25 μl) contained a final concentration of 1 μM compound, liver microsome protein (0.5 mg/ml), and 1 mM NADPH (reduced form of nicotinamide adenine dinucleotide phosphate) and/or 1 mM uridine diphosphate glucuronic acid (with alamethicin) in 100 mM potassium phosphate (pH 7.4) with 3 mM MgCl2. After 0, 15, 30, and 60 min, 150 μl of quench solution (100% acetonitrile with 0.1% formic acid) with an internal standard was transferred to each well. Reactions containing the same components, except NADPH, were prepared as the negative control.
The extent of metabolism was calculated as the disappearance of compounds compared to the 0-min time incubation.

Kinetic solubility = details: for Kinetic solubility (uM), mean: DMSO concentration 5%; for Mean solubility: phosphate-buffered saline pH 7.4, triplicate
Caco-2 cells = tested on: Caco-2 cells
Protocol: Caco-2 cell plates were obtained commercially and were maintained for 21 days at 37°C with 5% CO2. Cells were washed with Hank’s balanced salt solution with 5 mM Hepes for 30 min before starting the experiment. Test compound solutions are prepared by diluting DMSO stock into Hank’s balanced salt solution buffer, resulting in a final DMSO concentration of 0.1%. Before the assay, cell monolayer integrity was verified by […] electrical resistance to ensure that wells have resistance above the acceptance cutoff (1 kilohm). Transport experiments were initiated by adding test compounds to the apical (75 μl) or basal (250 μl) side. Transport plates were incubated at 37°C in a humidified incubator with 5% CO2. Samples were taken from the donor and acceptor compartments after 1 hour and analyzed by liquid chromatography–tandem mass spectrometry (LC-MS/MS) using an AB Sciex API 4000 instrument coupled to a Shimadzu LC-20 AD LC Pump system. Samples were separated using a Waters Atlantis T3 dC18 reverse phase HPLC column (20 mm by 2.1 mm) at a flow rate of 0.5 ml/min. The mobile phase consisted of 0.1% formic acid in acetonitrile (solvent A) and 0.1% formic acid in water (solvent B).
Apparent permeability (Papp) values were calculated using the following equation Papp=(dQ/dt)/A/C0 where dQ/dt is the initial rate of compound transport across the cell monolayer, A is the surface area of the filter membrane, and C0 is the initial concentration of the test compound, calculated for each direction using a four-point calibration curve by LC-MS/MS.
The net flux ratio between the two directional transports was calculated by the following equation Ratio=PappB−A/PappA−B where PappB-A and PappA-B represent the apparent permeability of compounds from the basal-to-apical and apical-to-basal sides of the cellular monolayer, respectively. Recovery was calculated on the basis of the compound concentration at the end of the experiment compared to that at the beginning of the experiment, adjusted for volumes.

[1] = biological target: T1, human macrodomain MacroD2 (Homo sapiens, UniProt A1Z1Q3); test: HTRF peptide displacement assay, human MacroD2; assay type: binding; details: result in words
T1 construct: MacroD2_HTRF; HTRF assay; pET22b(+); His6, TEV, Avi; 2-425; made in house
T1 sequence (A1Z1Q3 with tags, fused parts or gaps): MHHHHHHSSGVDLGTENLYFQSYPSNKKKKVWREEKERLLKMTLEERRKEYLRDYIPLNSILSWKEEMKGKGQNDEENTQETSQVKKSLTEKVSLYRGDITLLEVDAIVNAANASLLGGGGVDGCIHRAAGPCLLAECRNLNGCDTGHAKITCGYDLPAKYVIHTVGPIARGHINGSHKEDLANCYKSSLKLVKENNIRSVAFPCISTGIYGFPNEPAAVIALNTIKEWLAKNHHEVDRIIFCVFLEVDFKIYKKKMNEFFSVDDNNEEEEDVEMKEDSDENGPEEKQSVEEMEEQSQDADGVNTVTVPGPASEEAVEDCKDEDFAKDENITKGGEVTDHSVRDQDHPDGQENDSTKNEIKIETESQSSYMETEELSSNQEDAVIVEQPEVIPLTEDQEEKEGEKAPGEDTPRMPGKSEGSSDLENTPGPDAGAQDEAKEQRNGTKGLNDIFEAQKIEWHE

human macrodomain Targ1 = biological target: T2, human macrodomain Targ1 (Homo sapiens, UniProt Q9Y530); test: HTRF peptide displacement assay, human Targ1; assay type: binding; details: result in words
T2 construct: Targ1_HTRF; HTRF assay; pET22b(+); His6, TEV; 1-153; made in house
T2 sequence (Q9Y530 with tags, fused parts or gaps): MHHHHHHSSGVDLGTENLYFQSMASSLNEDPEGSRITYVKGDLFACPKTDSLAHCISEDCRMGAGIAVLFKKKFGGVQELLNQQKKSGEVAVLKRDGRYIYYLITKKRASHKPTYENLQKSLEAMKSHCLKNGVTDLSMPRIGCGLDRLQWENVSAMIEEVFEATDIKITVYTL

[2] = biological target: T3, SARS-CoV-2 NSP3 macrodomain (Mac1) (Severe acute respiratory syndrome coronavirus 2, UniProt P0DTD1); test: biochemical; assay type: binding
[3] = biological target: T3, SARS-CoV-2 NSP3 macrodomain (Mac1); assay type: binding; details: for 1-BDC: PanDDA background density correction factor; for Total number of conformations: ligand conformations modeled in the crystal structure; for 2*(1-BDC) (%): occupancy estimate from PanDDA; for Refined ligand occupancy (%): refined crystallographic occupancy
Mac1 = details: cited from earlier work
[4] = HTRF binding curve, SARS-CoV-2 Mac1
[5] = SARS CoV-2 macrodomain HTRF assay, dose-response
[6] = crystal soak 10 mM, P43 crystal form

SMILES | T1/2 (min), mean (Microsomal stability) [min] | CLint (mouse) (Microsomal stability) [µl/min/mg protein] | Kinetic solubility (uM), mean (Kinetic solubility) [µM] | Mean solubility (Kinetic solubility) [µM] | showed binding to the human macrodomain MacroD2 [1] | showed binding to the human macrodomain Targ1 (human macrodomain Targ1) | Hill slope [2, 4] | Hill slope [2, 5] | Occupancy difference (refined_occupancy - 2*(1-BDC)) [3] | 1-BDC [3] | PanDDA run, overall: Hit [3, 6] | PanDDA run, DMSO background map: 1-BDC ([3]; crystal soak 10 mM) | PanDDA run, DMSO background map: Hit ([3]; crystal soak 10 mM) | Total number of conformations [3] | 2*(1-BDC) (%) [3] [%] | Refined ligand occupancy (%) [3] [%] | also measured
CC(C)(O)[C@H]1CCCN1c1ncnc2[nH]ccc12 [AVI-607, 2-[(2R)-1-{7H-pyrrolo[2,3-d]pyrimidin-4-yl}pyrrolidin-2-yl]propan-2-ol] | 19 | 73 | 518 | 518 | none | none | 1.5 | 1.5 | 5 | 0.44 | TRUE | 0.42 and 0.44 | TRUE | 1 | 88 | 93 | Recover Rate (%) (Caco-2 cells; Caco-2 permeability assay, compound concentration 5): 93%; inhibition at 200 µM ([2]; SARS CoV-2 macrodomain HTRF assay, single dose concentration 200 μM, read-out: Average % competition): 100%; inhibition at 200 µM ([2]; compound at 200 μM, mean of three to four technical replicates, read-out: % competition at 200 μM (preliminary HTRF screen)): 100%; PanDDA run, overall: Modeling comment ([3]; crystal soak 10 mM): High occupancy, use manual refinement; X-ray crystal structure ([3]; ligand-bound crystal structure obtained (TRUE)): TRUE; Binding site ([3]; site occupied in X-ray crystal structure): Adenosine
CC(c1ccccc1)C(CO)Nc1ncnc2[nH]ccc12 (stereo not shown) [AVI-3669] | 8.3 | 166.4 | 529 | 529 | none | none | 1.2 | 1.2 | 0 | 0.14 | TRUE | 0.14 | TRUE | 1 | 28 | 28 | Recover Rate (%) (Caco-2 cells; Caco-2, compound concentration 5): 93%; X-ray crystal structure ([3]; TRUE = crystal structure with ligand obtained): TRUE; PanDDA run, overall: Modeled [3, 6]: TRUE; Binding site ([3]; site of ligand in X-ray crystal structure): Adenosine
CCNC(=O)Nc1cccc2c1[nH]c1ncnc(NN3C(=O)CCC3(C)C)c12 [AVI-4206] |  |  |  |  |  |  |  |  |  |  |  |  |  |  |  |  | potency (in words) (Mac1): double-digit nanomolar
